Structures are written as SMILES.

One experiment has as its target Substance-P receptor (Homo sapiens, UniProt P25103). Kind of experiment: Binding affinity against Neurokinin 1(NK1) receptor from human IM-9 cells using [I]-Bolton Hunter labeled SP. Type of experiment: cell-based.
The next experiment addresses T1, Substance-K receptor (Homo sapiens, UniProt P21452).
T1 sequence (P21452 whole entry): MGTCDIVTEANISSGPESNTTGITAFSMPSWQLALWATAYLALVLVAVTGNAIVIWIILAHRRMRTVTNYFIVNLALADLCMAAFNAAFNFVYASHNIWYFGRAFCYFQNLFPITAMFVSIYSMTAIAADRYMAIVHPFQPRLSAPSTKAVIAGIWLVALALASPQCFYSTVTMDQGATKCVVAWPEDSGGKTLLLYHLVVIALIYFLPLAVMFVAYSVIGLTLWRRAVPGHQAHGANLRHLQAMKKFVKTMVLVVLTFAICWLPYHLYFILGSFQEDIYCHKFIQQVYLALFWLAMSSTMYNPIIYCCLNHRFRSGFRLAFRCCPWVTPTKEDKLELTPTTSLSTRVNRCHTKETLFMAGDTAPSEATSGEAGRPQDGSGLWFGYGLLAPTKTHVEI
Kind of experiment: Binding affinity against human NK2 receptors from HSKR-1 cells using [125I]-Iodohistidyl NKA. Type of experiment: cell-based.

The next experiment has as its target T2, Neuromedin-K receptor (Cavia porcellus, UniProt P30098).
T2 sequence (P30098 whole entry): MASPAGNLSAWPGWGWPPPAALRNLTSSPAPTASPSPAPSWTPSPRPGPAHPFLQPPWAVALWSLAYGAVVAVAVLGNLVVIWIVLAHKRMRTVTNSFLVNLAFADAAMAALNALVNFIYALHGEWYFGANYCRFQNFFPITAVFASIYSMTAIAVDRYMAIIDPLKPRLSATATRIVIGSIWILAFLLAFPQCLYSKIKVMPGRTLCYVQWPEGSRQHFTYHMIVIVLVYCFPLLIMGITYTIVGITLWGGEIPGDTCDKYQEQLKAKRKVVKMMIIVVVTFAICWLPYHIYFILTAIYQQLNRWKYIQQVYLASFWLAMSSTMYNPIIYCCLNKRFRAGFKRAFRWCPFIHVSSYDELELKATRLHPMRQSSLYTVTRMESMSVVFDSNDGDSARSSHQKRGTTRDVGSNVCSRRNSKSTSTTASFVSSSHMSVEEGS
Description: NK3 IC50 determined using [125I]bolton Hunter labeled eledoisin at NK3 receptors from guinea pig cerebral cortex. In kind it is tissue-based.

Chain of Substance-P receptor (P25103 whole entry): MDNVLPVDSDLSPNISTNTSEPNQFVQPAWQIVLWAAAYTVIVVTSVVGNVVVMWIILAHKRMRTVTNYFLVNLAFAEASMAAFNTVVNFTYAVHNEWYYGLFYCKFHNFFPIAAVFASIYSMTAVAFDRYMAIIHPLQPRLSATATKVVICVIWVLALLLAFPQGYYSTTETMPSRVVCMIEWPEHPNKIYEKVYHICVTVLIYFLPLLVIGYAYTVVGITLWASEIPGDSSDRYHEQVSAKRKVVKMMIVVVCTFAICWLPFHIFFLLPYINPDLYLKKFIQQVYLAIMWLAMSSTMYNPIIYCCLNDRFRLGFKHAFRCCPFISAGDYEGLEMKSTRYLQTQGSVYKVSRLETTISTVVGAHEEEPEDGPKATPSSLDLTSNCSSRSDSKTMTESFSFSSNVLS

For the compound `COc1cc(CC(=O)N2CCC(CCN3CCC(C(N)=O)(c4ccccc4)CC3)(c3ccc(Cl)c(Cl)c3)C2)cc(OC)c1OC` (configuration not stated), the IC50 on Substance-P receptor turned out to be 66.2 nM; on Substance-K receptor, 55.5 nM. Compound `COc1ccccc1CC(=O)N1CCC(CCN2CCC(C(N)=O)(c3ccccc3)CC2)(c2ccc(Cl)c(Cl)c2)C1` (configuration not stated) yielded an IC50 at Substance-P receptor of 48.2 nM. With `COc1cccc(C(=O)N2CCC(CCN3CCC(C(N)=O)(c4ccccc4)CC3)(c3ccc(Cl)c(Cl)c3)C2)c1` (configuration not stated), the figures for the IC50 on Substance-P receptor and on Substance-K receptor were 107 nM and 12 nM, respectively. For the compound `COc1ccc(C(=O)N2CCC(CCN3CCC(C(N)=O)(c4ccccc4)CC3)(c3ccc(Cl)c(Cl)c3)C2)c(OC)c1` (configuration not stated), the IC50 on Substance-P receptor was 127 nM. In the case of `COc1ccccc1C(=O)N1CCC(CCN2CCC(C(N)=O)(c3ccccc3)CC2)(c2ccc(Cl)c(Cl)c2)C1` (configuration not stated), the IC50 was 73.6 nM on Substance-P receptor and 16.7 nM on Substance-K receptor. `COc1cc(OC)cc(C(=O)N2CCC(CCN3CCC(C(N)=O)(c4ccccc4)CC3)(c3ccc(Cl)c(Cl)c3)C2)c1` (configuration not stated): the IC50 was determined as 69.9 nM on Substance-P receptor and 19.1 nM on Substance-K receptor.

Regarding `COc1c(Br)cc(C(=O)N2CCC(CCN3CCC(C(N)=O)(c4ccccc4)CC3)(c3ccc(Cl)c(Cl)c3)C2)cc1Br` (configuration not stated), the IC50 on Substance-P receptor amounted to 313 nM; on Substance-K receptor it was 4.04 nM. For the compound `CCOC(=O)Oc1c(OC)cc(C(=O)N2CCC(CCN3CCC(C(N)=O)(c4ccccc4)CC3)(c3ccc(Cl)c(Cl)c3)C2)cc1OC` (configuration not stated), the 50% inhibitory concentration (IC50) was 252 nM on Substance-P receptor and 96.3 nM on Substance-K receptor. `COc1c(C)cc(C(=O)N2CCC(CCN3CCC(C(N)=O)(c4ccccc4)CC3)(c3ccc(Cl)c(Cl)c3)C2)cc1C` (configuration not stated): the values for the IC50 at Substance-P receptor and on Substance-K receptor were 168 nM and 6.94 nM, respectively.

As for `COc1cc(C(=O)N2CC[C@](CCN3CCC(C(N)=O)(c4ccccc4)CC3)(c3ccc(Cl)c(Cl)c3)C2)cc(OC)c1OC`, the IC50 against Neuromedin-K receptor was 21 nM; at Substance-P receptor, 3.11 nM; at Substance-K receptor it was 8.4 nM. Compound `NC(=O)C1(c2ccccc2)CCN(CCC2(c3ccc(Cl)c(Cl)c3)CCN(C(=O)c3ccccc3)C2)CC1` (configuration not stated) had an IC50 on Substance-P receptor of 271 nM. As to `COc1cc(C(=O)N2CCC(CCN3CCC(C(N)=O)(c4ccccc4)CC3)(c3ccc(Cl)c(Cl)c3)C2)cc(OC)c1C` (configuration not stated), the IC50 at Substance-P receptor was found to be 64.1 nM; on Substance-K receptor it was 13.4 nM.

Regarding `COc1cccc(OC)c1C(=O)N1CCC(CCN2CCC(C(N)=O)(c3ccccc3)CC2)(c2ccc(Cl)c(Cl)c2)C1` (configuration not stated), the IC50 on Substance-P receptor came to 22.8 nM; on Substance-K receptor, 53.2 nM. On to `COc1cc(C(=O)N2CCC(CCN3CCC(C(N)=O)(c4ccccc4)CC3)(c3ccc(Cl)c(Cl)c3)C2)cc(OC)c1OC(C)C` (configuration not stated), for which the IC50 came out at 65.9 nM on Substance-P receptor and 42.4 nM at Substance-K receptor. On to `CC(C)Oc1cccc(CC(=O)N2CCC(CCN3CCC(C(N)=O)(c4ccccc4)CC3)(c3ccc(Cl)c(Cl)c3)C2)c1` (configuration not stated), for which the IC50 at Substance-P receptor was 138 nM; at Substance-K receptor, 548 nM.

Consider `COc1ccc(C(=O)N2CCC(CCN3CCC(C(N)=O)(c4ccccc4)CC3)(c3ccc(Cl)c(Cl)c3)C2)cc1` (configuration not stated), for which the values for the IC50 at Substance-P receptor and on Substance-K receptor were 634 nM and 11.8 nM, respectively. Turning to `COc1cc(C(=O)N2CCC(CCN3CCC(C(N)=O)(c4ccccc4)CC3)(c3ccc(Cl)c(Cl)c3)C2)cc(OC)c1OC` (configuration not stated), the values for the IC50 at Substance-P receptor and on Substance-K receptor were 6.19 nM and 18.8 nM, respectively. `COc1ccccc1CN[C@H]1C2CCN(CC2)[C@H]1C(c1ccccc1)c1ccccc1` [CP-96345]: the IC50 on Neuromedin-K receptor and on Substance-K receptor was over 10000 nM in each case. On to `CC(=O)NC1(c2ccccc2)CCN(CC[C@H](CN(C)C(=O)c2ccccc2)c2ccc(Cl)c(Cl)c2)CC1` [SAREDUTANT], for which the IC50 turned out to be 208 nM on Neuromedin-K receptor, 593 nM at Substance-P receptor and 0.44 nM at Substance-K receptor.

Broadly, the IC50 is the concentration that gives 50% inhibition. High values mean weaker potency in that assay, low ones greater potency in that assay.

The values are drawn from ChEMBL document CHEMBL1149947, “Identification and chemical synthesis of MDL 105,212, a non-peptide tachykinin antagonist with high affinity for NK1 and NK2 receptors” (Bioorg Med Chem Lett, 1996).
